Measured values from PubChem BioAssay (NCI).
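Values below derive from 48-hour exposures of cells grown in 96-well plates, with endpoints linearly interpolated between the two concentrations bracketing the appropriate inhibition level. GI50 marks 50% less growth. TGI denotes the concentration required for complete inhibition of growth.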

Columns and labels:
Test in all cases: NCI-60 cell line screen, 48 h
OVCAR-4 ovarian = system: OVCAR-4 ovarian
EKVX NSCLC = system: EKVX NSCLC
HOP-62 NSCLC = system: HOP-62 NSCLC
HL-60(TB) leukemia = system: HL-60(TB) leukemia
SN12C renal = system: SN12C renal
NCI-H23 lung = system: NCI-H23 lung
PC-3 prostate = system: PC-3 prostate
SNB-19 CNS = system: SNB-19 CNS
SK-MEL-2 melanoma = system: SK-MEL-2 melanoma
SF-539 CNS = system: SF-539 CNS
SF-268 CNS = system: SF-268 CNS
SK-MEL-28 melanoma = system: SK-MEL-28 melanoma
HOP-92 NSCLC = system: HOP-92 NSCLC
NCI/ADR-RES ovarian = system: NCI/ADR-RES ovarian
UACC-257 melanoma = system: UACC-257 melanoma
CCRF-CEM leukemia = system: CCRF-CEM leukemia
NCI-H460 lung = system: NCI-H460 lung
COLO 205 colon = system: COLO 205 colon
MOLT-4 leukemia = system: MOLT-4 leukemia
MDA-MB-435 = system: MDA-MB-435
UACC-62 melanoma = system: UACC-62 melanoma
A498 renal = system: A498 renal
BT-549 breast = system: BT-549 breast
MDA-MB-468 breast = system: MDA-MB-468 breast
SF-295 CNS = system: SF-295 CNS
TK-10 renal = system: TK-10 renal
MALME-3M melanoma = system: MALME-3M melanoma
786-0 renal = system: 786-0 renal
RPMI-8226 leukemia = system: RPMI-8226 leukemia
M14 melanoma = system: M14 melanoma
NCI-H226 lung = system: NCI-H226 lung
HT29 colon = system: HT29 colon
SK-MEL-5 melanoma = system: SK-MEL-5 melanoma
SR leukemia = system: SR leukemia
RXF 393 renal = system: RXF 393 renal
OVCAR-5 ovarian = system: OVCAR-5 ovarian
U251 CNS = system: U251 CNS
HCC-2998 colon = system: HCC-2998 colon
KM12 colon = system: KM12 colon
OVCAR-3 ovarian = system: OVCAR-3 ovarian
SNB-75 CNS = system: SNB-75 CNS
ACHN renal = system: ACHN renal
MCF7 breast = system: MCF7 breast
IGROV1 ovarian = system: IGROV1 ovarian
K-562 leukemia = system: K-562 leukemia
NCI-H522 lung = system: NCI-H522 lung
A549 NSCLC = system: A549 NSCLC
DU-145 prostate = system: DU-145 prostate
T-47D breast = system: T-47D breast
HCT-15 colon = system: HCT-15 colon
UO-31 renal = system: UO-31 renal
CAKI-1 renal = system: CAKI-1 renal
OVCAR-8 ovarian = system: OVCAR-8 ovarian
HCT-116 colon = system: HCT-116 colon
SK-OV-3 ovarian = system: SK-OV-3 ovarian

Cn1cc(-c2cc3nc(-c4cn(C)c5ncc(Br)cc45)cc(N)n3n2)c2ccccc21
GI50 (OVCAR-4 ovarian): 17.1 µM | TGI (OVCAR-4 ovarian): 59.7 µM | GI50 (EKVX NSCLC): 10.1 µM | TGI (EKVX NSCLC): 27.1 µM | GI50 (HOP-62 NSCLC): 14.8 µM | TGI (HOP-62 NSCLC): 46.5 µM | GI50 (HL-60(TB) leukemia): 3.53 µM | TGI (HL-60(TB) leukemia): 32.6 µM | GI50 (SN12C renal): 12.8 µM | TGI (SN12C renal): 27.9 µM | GI50 (NCI-H23 lung): 15.7 µM | TGI (NCI-H23 lung): 41.3 µM | GI50 (PC-3 prostate): 6.58 µM | TGI (PC-3 prostate): > 100 µM | GI50 (SNB-19 CNS): 17.8 µM | TGI (SNB-19 CNS): 41.9 µM | GI50 (SK-MEL-2 melanoma): 11.2 µM | TGI (SK-MEL-2 melanoma): 26.7 µM | GI50 (SF-539 CNS): 14.1 µM | TGI (SF-539 CNS): 28.7 µM | GI50 (SF-268 CNS): 13.1 µM | TGI (SF-268 CNS): 89.6 µM | GI50 (SK-MEL-28 melanoma): 15.2 µM | TGI (SK-MEL-28 melanoma): 29.1 µM | GI50 (HOP-92 NSCLC): 4.97 µM | TGI (HOP-92 NSCLC): 25.1 µM | GI50 (NCI/ADR-RES ovarian): 17.4 µM | TGI (NCI/ADR-RES ovarian): 76.1 µM | GI50 (UACC-257 melanoma): 14 µM | TGI (UACC-257 melanoma): 30.4 µM | GI50 (CCRF-CEM leukemia): 3.52 µM | TGI (CCRF-CEM leukemia): > 100 µM | GI50 (NCI-H460 lung): 7.78 µM | TGI (NCI-H460 lung): 28.1 µM | GI50 (COLO 205 colon): 16.8 µM | TGI (COLO 205 colon): 33.8 µM | GI50 (MOLT-4 leukemia): 3.52 µM | TGI (MOLT-4 leukemia): 30.9 µM | GI50 (MDA-MB-435): 16.4 µM | TGI (MDA-MB-435): 34.1 µM | GI50 (UACC-62 melanoma): 11.5 µM | TGI (UACC-62 melanoma): 24.8 µM | GI50 (A498 renal): 8.84 µM | TGI (A498 renal): 23.7 µM | GI50 (BT-549 breast): 19.5 µM | TGI (BT-549 breast): 47.8 µM | GI50 (MDA-MB-468 breast): 3.71 µM | TGI (MDA-MB-468 breast): 15.6 µM | GI50 (SF-295 CNS): 13.5 µM | TGI (SF-295 CNS): 31.1 µM | GI50 (TK-10 renal): 13.8 µM | TGI (TK-10 renal): 44.9 µM | GI50 (MALME-3M melanoma): 16.8 µM | TGI (MALME-3M melanoma): 32.7 µM | GI50 (786-0 renal): 13.4 µM | TGI (786-0 renal): 33.3 µM | GI50 (RPMI-8226 leukemia): 13.6 µM | TGI (RPMI-8226 leukemia): > 100 µM | GI50 (M14 melanoma): 15.3 µM | TGI (M14 melanoma): 38.1 µM | GI50 (NCI-H226 lung): 15.1 µM | TGI (NCI-H226 lung): 62.7 µM | GI50 (HT29 colon): 5.65 µM | TGI (HT29 colon): 20.4 µM | GI50 (SK-MEL-5 melanoma): 15.1 µM | TGI (SK-MEL-5 melanoma): 28.4 µM | GI50 (SR leukemia): 2.46 µM | TGI (SR leukemia): > 100 µM | GI50 (RXF 393 renal): 6.13 µM | TGI (RXF 393 renal): 19.3 µM | GI50 (OVCAR-5 ovarian): 14.5 µM | TGI (OVCAR-5 ovarian): 35.1 µM | GI50 (U251 CNS): 5.65 µM | TGI (U251 CNS): 27.4 µM | GI50 (HCC-2998 colon): 3.74 µM | TGI (HCC-2998 colon): 13.9 µM | GI50 (KM12 colon): 6.04 µM | TGI (KM12 colon): 26.7 µM | GI50 (OVCAR-3 ovarian): 13.5 µM | TGI (OVCAR-3 ovarian): 28.5 µM | GI50 (SNB-75 CNS): 11.9 µM | TGI (SNB-75 CNS): 58.2 µM | GI50 (ACHN renal): 13.5 µM | TGI (ACHN renal): 45.6 µM | GI50 (MCF7 breast): 5.31 µM | TGI (MCF7 breast): 27.3 µM | GI50 (IGROV1 ovarian): 11.7 µM | TGI (IGROV1 ovarian): 32.6 µM | GI50 (K-562 leukemia): 2.94 µM | TGI (K-562 leukemia): > 100 µM | GI50 (NCI-H522 lung): 12.8 µM | TGI (NCI-H522 lung): 32.7 µM | GI50 (A549 NSCLC): 9.25 µM | TGI (A549 NSCLC): > 100 µM | GI50 (DU-145 prostate): 21.4 µM | TGI (DU-145 prostate): > 100 µM | GI50 (T-47D breast): 7.38 µM | TGI (T-47D breast): 30.4 µM | GI50 (HCT-15 colon): 2.53 µM | TGI (HCT-15 colon): 6.94 µM | GI50 (UO-31 renal): 13.1 µM | TGI (UO-31 renal): 45.8 µM | GI50 (CAKI-1 renal): 12.7 µM | TGI (CAKI-1 renal): 48.1 µM | GI50 (OVCAR-8 ovarian): 21.8 µM | TGI (OVCAR-8 ovarian): 85.9 µM | GI50 (HCT-116 colon): 7.98 µM | TGI (HCT-116 colon): 27.6 µM | GI50 (SK-OV-3 ovarian): 20.4 µM | TGI (SK-OV-3 ovarian): 59.6 µM
